Where only a bound is given, the exact number is not on record here.

The test system of one data set is HeLa cells. The following applies: read-out: cytotoxic IC50 in HeLa cells; cited from earlier work.
The target of data set [1] is T1, FDH (formaldehyde dehydrogenase) (Pseudomonas putida, UniProt P46154).
T1 construct: purchased Sigma
T1 sequence (P46154 1-399): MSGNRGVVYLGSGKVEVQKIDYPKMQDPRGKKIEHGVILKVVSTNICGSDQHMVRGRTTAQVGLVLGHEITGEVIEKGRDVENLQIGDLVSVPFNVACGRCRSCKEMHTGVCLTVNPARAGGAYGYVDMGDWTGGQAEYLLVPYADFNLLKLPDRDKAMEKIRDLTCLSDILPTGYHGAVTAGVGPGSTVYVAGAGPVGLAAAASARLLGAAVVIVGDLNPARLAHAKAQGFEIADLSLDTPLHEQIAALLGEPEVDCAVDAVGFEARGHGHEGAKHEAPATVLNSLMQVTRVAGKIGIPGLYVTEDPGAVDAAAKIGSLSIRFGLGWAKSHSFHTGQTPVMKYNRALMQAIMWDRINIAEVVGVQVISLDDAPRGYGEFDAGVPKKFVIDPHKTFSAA
Description: FDH residual activity (control for the coupling enzyme). The class given is biochemical. On the set-up: concentration or dose not given beside the values.

The next data set deals with T2, KDM4A (Homo sapiens, UniProt O75164).
T2 construct: Human KDM4B 1-348 and KDM4A 1-347 were PCR amplified; His6 (N); made in house; host or cells: Escherichia coli BL21 (DE3)
T2 sequence (O75164 1-347): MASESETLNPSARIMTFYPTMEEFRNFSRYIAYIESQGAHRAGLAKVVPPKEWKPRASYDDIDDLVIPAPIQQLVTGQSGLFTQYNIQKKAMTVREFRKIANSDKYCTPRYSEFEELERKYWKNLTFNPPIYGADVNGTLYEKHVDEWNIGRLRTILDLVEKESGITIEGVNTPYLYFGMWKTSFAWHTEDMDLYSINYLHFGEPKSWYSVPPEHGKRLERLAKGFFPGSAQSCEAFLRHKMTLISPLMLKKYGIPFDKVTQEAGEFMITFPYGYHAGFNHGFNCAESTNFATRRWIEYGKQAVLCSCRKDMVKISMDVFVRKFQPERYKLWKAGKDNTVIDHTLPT
Description: Formaldehyde dehydrogenase-coupled demethylase assay, KDM4A. The settings on record: for Demethylase Residual Activity (%): FDH-coupled assay. It is filed as biochemical. On the set-up: Demethylase Residual Activity (%): concentration or dose not given beside the values.

The next data set addresses T3, KDM4B (Homo sapiens, UniProt O94953).
T3 construct: Human KDM4B 1-348 and KDM4A 1-347 were PCR amplified; His6 (N); made in house; host or cells: Escherichia coli BL21 (DE3)
T3 sequence (O94953 1-348): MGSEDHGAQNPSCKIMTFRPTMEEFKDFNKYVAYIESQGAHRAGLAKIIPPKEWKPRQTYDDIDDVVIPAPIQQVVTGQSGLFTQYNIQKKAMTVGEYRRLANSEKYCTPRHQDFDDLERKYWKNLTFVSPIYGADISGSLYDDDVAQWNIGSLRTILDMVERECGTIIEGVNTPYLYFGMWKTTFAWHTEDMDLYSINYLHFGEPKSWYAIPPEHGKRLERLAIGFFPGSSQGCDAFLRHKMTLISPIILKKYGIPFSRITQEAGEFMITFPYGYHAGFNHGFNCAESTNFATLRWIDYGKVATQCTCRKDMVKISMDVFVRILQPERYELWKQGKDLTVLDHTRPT
Description: Formaldehyde dehydrogenase-coupled demethylase assay, KDM4B. It is filed as biochemical. On the set-up: concentration or dose not given beside the values. The settings on record: FDH-coupled assay.

Data set [2] concerns KDM4A/KDM4B. Description: KDM4A/KDM4B inhibitory assay, results stated in words. The class given is biochemical, human. The procedure: Formaldehyde dehydrogenase-coupled demethylase assay was used to determine the demethylase activity and select the potent inhibitors. All inhibitors were dissolved in dimethyl sulfoxide (DMSO) at various concentrations, and added to the mixture that the final DMSO concentration is 5%. The reagents for demethylase reactions were dissolved in HEPES buffer (50 mM, pH 7.5), with the exception of Fe(II) solutions, which were made using (NH4)2Fe(SO4)2 dissolved in 20 mM HCl to make 400 mM stock solution. All the reagents were stored at −30° C. FDH, NAD+, H-TKQTARK(Me3)[…]-OH (TR-15, H33-17K9me3, Kelowna), DMSO, and KDM4B were added first to 96-well black immune plate (SPL Life Science) and incubated together on ice for 15 min. Then the plate was put into FLUOStar OPTIMA ELISA reader (BMG LABTECH) with 37° C., and the reaction was started by adding ascorbic acid (ascorbate), Fe(II), and α-ketoglutarate (AKG) to final concentration of 50 mM HEPES, pH 7.5, 2 μM of KDM4B, 5% DMSO, 0.01 U FDH (Sigma), 1 mM NAD+, 1 mM 2-OG, 2 mM ascorbate, and 50 μM Fe(II), various concentration of H3K9me3 peptide, and the final volume was 50 μl. Each reaction was incubated at 37° C. for 30 min and the production of NADH would be detected by using the fluorescence Ex 360/Em 470. […]

A further data set has as its system H3K9me3 in LNCaP cells. Put plainly: Cellular level of H3K9me3 in LNCaP cells, immunoblotting. It is filed as cell-based, human. The procedure: (§1) LNCaP cells are infected with lentivirus with control shRNA (control) and shKDM4A or shKDM4B as indicated (left panel). The qRT-PCR analysis is performed to evaluate the expression of KDM4s (right panel). […] LNCaP cells are treated with 1,5-bis[(E)-2-(3,4-dichlorophenyl) ethenyl]-2,4-dinitrobenzene for three days, and the viability is measured by viable cell count. SD is derived from biological triplicates. The level of H3K9me3 of 1,5-bis[(E)-2-(3,4-dichlorophenyl)ethenyl]-2,4-dinitrobenzene-treated cells (24 hr) is detected and quantified by AlphaView SA (Cell Biosciences Inc.). The level of H3K9me3 is shown by bar graph.
(§2) Total cell lysates were obtained by lysing the cell with buffer (50 mM Tris-HCl pH7.5, 150 mM NaCl, 0.5% Triton X-100, 10% glycerol, 1 mM EDTA, protease inhibitors) for 15 min on ice, followed by 10 min of sonication cycle (30 sec on, 30 sec off) on ice. The level of total histone H3 and trimethylated histone H3 Lys9 was analyzed by western blotting using anti-histone H3 and anti-H3K9me3 antibodies (Abcam, MA). Cells treated with mock and the inhibitor were harvested and fixed by 70% ethanol for >4 hours at −20° C., followed by propidium iodide (Sigma Aldrich) staining. The DNA content was analyzed by Becton Dickinson FACScan flow cytometry, and the sub-G1 population was quantified by WinMDI 2.9.
For orientation: A western blot detects proteins with antibodies after separation by electrophoresis.

The subject of data set [3] is LNCaP cells. Description: Flow cytometric analysis of DNA content (sub-G1, apoptosis) in LNCaP cells. The class given is cell-based, human. The settings on record: 50 μM, 3 days; mock 11.9%. The procedure: as §1, §2
Another data set is described as follows: in vitro. The class given is cell-based. The settings on record: human. The procedure: as §1
Primary PrEC cells were purchased from Clonetics (Walkersville, Md.) and cultured in serum-free prostate epithelial cell growth medium following the vendor's directions. Cell lines RWPE1, LNCaP (LNCaP-FGC), CWR22Rv1 (22Rv1), VCaP, DU145, PC3 (all purchased from ATCC), and PNT2 (Sigma Aldrich, MO), were cultured under condition as recommended. CWR-R1 cell (40) and LNCaP derived C4-2, C4-2B cells were cultured in RPMI1640 medium containing 10% FBS.

The test system of data set [4] is LNCaP cells. Description: Microarray gene expression analysis of treated LNCaP cells. The class given is cell-based, human. The settings on record: 3 days. How it is done: LNCaP cells treated with mock and the 1,5-bis[(E)-2-(3,4-dichlorophenyl) ethenyl]-2,4-dinitrobenzene inhibitor for 3 days were harvested and the total RNA was extracted using Trizol reagent (Life Technologies, NY). Microarray analysis was performed by the University of California Davis Cancer Center Gene Expression Resource, using Affymetrix Human Genome U133A (HG-U133A) GeneChip arrays (Affymetrix, CA), which permit expression analysis of the entire Genbank RefSeq database. Array scanning and generation of raw signal data files were done with GeneChip Operating Software (Affymetrix). Subsequent data analysis was done by GeneSpring (Agilent Technologies, CA) and DAVID Bioinformatic Resources 6.7 (NIH).

Data set [5] has as its system KDM4A/KDM4B. The settings on record: calf thymus histones as substrate.

In general, IC50 refers to the concentration that inhibits the measured activity by half. For the compound `O=C(O)c1ccc(O)c2ncccc12` [5-carboxy-8HQ], the IC50 in the data set on HeLa cells was 86.5 µM.

With `CCCCCC/C(C)=N/Nc1ccc([N+](=O)[O-])cc1[N+](=O)[O-]` [NSC1018], in data set [1], the “FDH Residual Activity (%)” value was more than 80%. The “Demethylase Residual Activity (%)” value on KDM4A is 85%; at KDM4B, 62%.

As to `C/C(=N/Nc1ccc([N+](=O)[O-])cc1[N+](=O)[O-])c1ccccc1` [NSC6129], the “FDH Residual Activity (%)” value in data set [1] is more than 80%. Besides, the “Demethylase Residual Activity (%)” value stood at 100% at KDM4A and 52% at KDM4B.

Turning to `O=C1C=Cc2ccccc2/C1=N/Nc1ccc([N+](=O)[O-])cc1[N+](=O)[O-]` [NSC15975], the “FDH Residual Activity (%)” value in data set [1] was more than 80%. Also, the “Demethylase Residual Activity (%)” value is listed as 73% at KDM4A and 90% on KDM4B.

Take `O=C(O)c1ccc(C(=O)c2ccccc2C(=O)O)cc1C(=O)O` [NSC28620]: the “inhibitory effect on KDM4A/KDM4B (in words)” value in the data set with KDM4A/KDM4B [2] is given as “completely lost the inhibitory effects”. Further, the “FDH Residual Activity (%)” value in [1] is listed as more than 80%.

For the compound `COC1CC(OC(=O)c2ccc([N+](=O)[O-])cc2)C(OC(=O)c2ccc([N+](=O)[O-])cc2)C(C)O1` (stereo not shown) [NSC107408], the “inhibitory effect on KDM4A/KDM4B (in words)” value in the data set with KDM4A/KDM4B [2] is given as “no inhibition”. In data set [1], the “FDH Residual Activity (%)” value is on record as more than 80%. Moreover, the “Demethylase Residual Activity (%)” value at KDM4A is 99%; on KDM4B, 64%.

Turning to `O=C1C=CC=C/C1=C\Nc1cc(C(=O)O)cc(C(=O)O)c1` [NSC124029], the “FDH Residual Activity (%)” value in data set [1] came to 97%. Further, the results for the “Demethylase Residual Activity (%)” value at KDM4A and on KDM4B were 93% and 62%, respectively.

As to `O=[N+]([O-])c1cc([N+](=O)[O-])c(/C=C/c2ccc(Cl)c(Cl)c2)cc1/C=C/c1ccc(Cl)c(Cl)c1` [NSC636819], the “FDH Residual Activity (%)” value in [1] is given as more than 80%. Besides, on KDM4A (against H33-17K9me3), the inhibitory mode result is recorded as “competitive”. In addition, in the data set on H3K9me3 in LNCaP cells (5 μM), the “demethylating activity toward H3K9me3 in cells” value was “essentially completely blocked”. In addition, the “cellular level of H3K9me3” value with H3K9me3 in LNCaP cells (24 hr, dose-dependent) is given as “notable increase”. The “apoptotic LNCaP cells” value in the data set with LNCaP cells [3] amounted to 39.5%. In “in vitro”, this compound came in with an IC50 at 3 days of 21.2 µM. Also, in the data set with LNCaP cells [4], the “expression of oncogenes IGF1R, FGFR3, CCNE2, AURKA and AURKB” value is given as “down-regulation”; the “expression of tumour suppressors RB1, CDH1” value is “up-regulation”. Besides, the “portion of the altered genes found to be androgen responsive genes” value in the data set on LNCaP cells [4] (≥two-fold alterations, 178/656) is on record as 27%.

With `COC(=O)C(C(=O)C(=O)Nc1ccc([N+](=O)[O-])cc1[N+](=O)[O-])c1nc2ccc(Cl)cc2[nH]c1=O` (stereo not shown) [NSC640999], the “FDH Residual Activity (%)” value in [1] is recorded as more than 80%. Besides, the results for the “Demethylase Residual Activity (%)” value on KDM4A and at KDM4B were 77% and 49%, respectively.

Turning to `C/C(CC(O)(C(F)(F)F)C(F)(F)F)=N/Nc1ccc([N+](=O)[O-])cc1[N+](=O)[O-]` [NSC659196], the “FDH Residual Activity (%)” value in data set [1] is reported as more than 80%. For the same compound, the “Demethylase Residual Activity (%)” value at KDM4A was determined as 92%; on KDM4B it was 56%.

Consider `O=C(O)c1ccnc(C(=O)O)c1` [PD2, pyridine 2,4-dicarboxylic acids, reference compound], for which the “demethylation activity on histones (H3K9me3, H3K36me3 western blot)” value in the data set on KDM4A/KDM4B [5] is “blocked the demethylation activity”. Moreover, the results for the “Demethylase Residual Activity (%)” value at KDM4A and on KDM4B were 21% and 24%, respectively.

The values are drawn from patent US11279966B2, “Method for identifying compound for inhibiting an activity of a histone lysine demethylase” (NATIONAL TSING HUA UNIVERSITY, priority 2014, dated 2022).
